Laboratory results published in US20260048003A1, “STABLE CYCLODEXTRIN FREE CARFILZOMIB FORMULATION” (AMGEN INC., priority 2020, published 2026).

Experiments:
Type in all cases: physicochemical
[1] = Visual observation of the cyclodextrin-free CFZ-API sample formulation (FIG. 1); details: CFZ-API 2 mg/ml in water in the presence of phosphate buffer solution (PBS)
From the text: FIG. 1 illustrates a visual comparison of carfilzomib active ingredient in (a) water, (b) cyclodextrin (CAPTISOL®) and cyclodextrin-free formulation of the present invention
Carfilzomib (CFZ) is a proteasomal inhibitor and active ingredient of KYPROLIS®, a lyophilized drug product which is for the treatment of multiple myeloma. The current commercial formulation of KYPROLIS contains CAPTISOL®, which is a cyclodextrin used to help solubility the CFZ-API. The present invention provides a stable, cyclodextrin-free formulations for CFZ-API in an aqueous solution which is suitable for injection. FIG. 1 illustrates (a) insoluble CFZ-API in water in the presence of phosphate buffer solution (PBS) (left vial); (b) current commercial KYPROLIS formulation containing CAPTISOL (middle vial); and (c) the cyclodextrin free formulation of the invention (right vial). Each sample contains CFZ-API concentration of 2 mg/ml.

[2] = Lyophilization and bulking agent screening
Protocol: 1 mL CFZ-API liquid formulation fill as prepared above in 3 mL Schott 1A glass vial was loaded into a VirTis Genesis 12 EL lyophilizer (TS Systems LyoStar™-3, SP Scientific, Warminster, PA). The lyophilization cycle used for screening bulking agents consisted of holding shelf temperature at 4° C. for 30 minutes then cooling the shelf to −45° C. at 0.2° C./min. The annealing step was then performed at from −45° C. to −12° C. at 0.3° C./min. The primary drying and secondary drying shelf temperatures were −25° C. and 25° C., respectively. The heating rate applied to the primary and secondary drying were 0.2° C./min and 0.1° C./min, respectively.
Table 5 describes the initial lyophilization study results of formulations containing bulking agents such as PVP 12,000 MW, mannitol, or glycine pre and post lyophilization. PVP was selected as a co-solubilizing agent candidate because of high solubility of CFZ-API in PVP pre and post lyophilization as discussed above. […]
Results from the lyophilization and bulking agent screening produced mostly poor lyophilized cakes, however two selected bulking agent provided cakes that looked better in overall drug product presentation. […] The CFZ-API recovery of 1.8 mg/ml was lower than the expected of 2 mg/ml possibly due to the other components of the powder absorbing the water, making it more dilute than theoretically measured.

[3] = Organic water miscible solvent screening to dissolve CFZ-API at high concentration; details: in NMP and DMSO
Protocol: Non-aqueous phase: (a) 200 mg/ml to 250 mg/ml of CFZ-API target concentration for the water miscible solvent screening; and (b) 20 to 50 mg/ml of CFZ-API target concentration for the co-solvent screening; and Aqueous phase: about 2 mg/ml target CFZ-API final concentration.
Since CFZ-API is extremely insoluble in water, various organic water miscible solvents were first screened to dissolve CFZ-API drug substance powder.

[4] = Aqueous phase solvents screening to dissolve CFZ-API to about 2 mg/ml (visual, RP-HPLC after filtration); details: aqueous solution around pH 3.0 to 3.5 (methane sulfonic acid) with 10,000 MW PVP
From the text: In Step 1 of the flow scheme preparation, non-aqueous solvents consisting of water miscible organic solvents and a co-solvent system were first added to dissolve the CFZ-API solid due its very low water solubility. […] The solution was then filtered by using 0.22 μm PES syringe filter equipped on a NORMJECT® (silicone free) syringe. The resulting filtrate was then checked for CFZ-API solubility recovery and stability on reverse phase high performance liquid chromatography (RP-HPLC). RP-HPLC was used to determine peak degradation as well as CFZ-API recovery through the use of a 3 to 5 point reference standard curve. Peak integration of standards was taken against standard buffer, 50% acetonitrile in water; while peak integration of formulation samples was taken against buffer of the formulation.

Visual observation (FIG. 1) [1]: insoluble
CFZ-API solubility trend with PVP concentration ([2]; PVP 10% to 40%): higher CFZ-API solubility
CFZ-API solubility trend with PVP molecular weight ([2]; PVP 10,000, 12,000 and 17,000 MW): more soluble in lower MW PVP
CFZ-API solubility [3]: highly soluble
CFZ-API solubilized [4]: ≥ 90%
Structure (SMILES): CC(C)C[C@H](NC(=O)[C@H](CCc1ccccc1)NC(=O)CN1CCOCC1)C(=O)N[C@@H](Cc1ccccc1)C(=O)N[C@@H](CC(C)C)C(=O)[C@@]1(C)CO1 [CFZ-API, Carfilzomib]
